Several values for one entry are separate records, joined by “and”; a condition that tells them apart may be missing. Equal entries are not always repeated.
How the values were obtained:
[1] = molecular target: Phosphodiesterase type 5 (PDE5) (Homo sapiens (Human), UniProt O76074); assay: In vitro phosphodiesterase type 5 (PDE5) inhibition assay; assay type: biochemical; settings: purified PDE5, IMAP FP assay
[2] = system: male rats; assay: Copulatory behavior testing; assay type: in vivo, rat; settings: 5 mg/kg oral; for mean intromission interval (MII): MII=EL/IF
Method: Sexually mature Wistar albino male and female rats weighing 150-180 g (10-14 weeks old) were used in our study. Males were trained for sexual behavior with estrus females, that is, two hours a day for one week, before the investigations. Females were brought into the estrous phase artificially by sequential injection of estradiol benzoate (Sigma) (25 μg/animal) and progesterone (Sigma) (250 μg/animal) subcutaneously, 48 and 4 hours before pairing, respectively. Only those sexually active animals were used subsequently in the study. Sexually active rats were isolated and housed in separate cages at room temperature (24±2° C.) on a reversed day/night cycle with a relative humidity of 50-55% during the experimental period. All sexual studies were performed in a calm laboratory condition under subdued light. For the toxicity study, adult Wistar albino male rats were used separately. Rats were obtained from the Experimental Animal Care Center, College of Pharmacy, King Saud University. Animals were fed with a standard pellet diet and provided water ad libitum. All experiments were performed per the protocols and recommendations of the NIH Guide for the Care and Use of Laboratory Animals and the legal requirements of King Saud University for investigations on humans and animals.
Based on a preliminary study to select the appropriate dose for the promising synthesized compounds, the compounds were administered separately to sexually experienced male rats by oral gavage at 5 mg/kg in a 0.5% sodium carboxymethyl cellulose (CMC) vehicle. […] All solutions were freshly prepared at a concentration that allowed the administration of 1 ml/kg.
After drug treatment, rats were housed separately in transparent cages for acclimation. Thirty minutes after drug treatment, a sexually receptive female rat with estrous phase was introduced in each cage for 30 min and the following parameters of the copulatory behavior were recorded: namely mount latency (ML; time from introduction of the female until the first mount with or without penile insertion, it measures the degree of arousal or sexual interest or libido of the male), mount frequency (MF; the number of mounts until ejaculation, it is a measure of the degree of the male's sexual interest or libido), intromission latency (IL; time from introduction of the female until the first intromission, it measures the degree of sexual excitement and erection), intromission frequency (IF; number of vaginal penetrations until ejaculation, it measures the degree of erection), ejaculation latency (EL; time from the first intromission until ejaculation, it determines the excellent organization of copulation in rats) and post-ejaculatory interval (PEI; time interval between an ejaculation and the following first mount, it measures the refractory period that comes after ejaculation). Latency values represent the number of seconds that elapses from the introduction of the female into the copulatory arena until the male executes the first mount, intromission or ejaculation. Frequency values represent the number of ejaculations, mounts or intromission recorded during the copulatory test.
Depending on these parameters, the following can be calculated: Copulatory efficiency (CE)=(IF/MF)×100 and mean intromission interval (MII)=EL/IF as previously described (Aydogan F. et al., J Ethnopharmacol 257 (2020) 112868; Besong E B. et al., Biochem Res Int 2018 (2018) 2869727, the contents of each of which are hereby incorporated by reference in their entirety). Experiments were repeated blindly three times using new fresh (unused) animals in each experiment.

[3] = system: sexually experienced male rats; assay: Penile erection index (noncontact erection test); assay type: in vivo, rat; settings: Rattus norvegicus, oral, linear regression of proportion of responding rats, read-out: effective dose ED50 (dose required to give 50% responding rats)
Method: The penile erection index is an established means of determining the erection promoting properties of a substance. Determination of penile erection in a noncontact position was calculated as reported previously (Haripriya V M. et al., Andrologia 51 (2019) e13180; Sharma V. et al., J Ethnopharmacol 143 (2012) 201-206, the contents of each of which are hereby incorporated by reference in their entirety). The sexually experienced male rats of all groups were given the treatment 30 minutes before experimentation. The number of animals for each dose was ten rats in each experiment. […] The results shown are the average of three separate experiments. Control animals were given 0.5% CMC as a vehicle.
The rats of each group were placed in the observation cages (five at a time) divided into half by two sheets of metal mesh, preventing contact but allowing auditory, visual and olfactory stimuli. After a 5-min adaptation period, the test was started by placing an estrus female on the other side of the cage. Penile erection was recorded when the rats bent down to lick their erect penis. Homosexual mounting was also counted when a male rat mounted another male rat performing pelvic thrusts with or without a penile erection. […] The effective dose ED50 (the dose required to give 50% responding rats) for examined compounds was calculated using linear regression analysis by GraphPad software with the proportion of responding rats as the input data and expressed as μmol/kg.

## CC(C)c1cc(C(C)C)c(S(=O)(=O)N2CCC(Cc3ccccc3)CC2)c(C(C)C)c1 [Compound C27, 1-((2,4,6-Tri-isopropylphenyl)sulfonyl)-4-Benzylpiperidine]
[1]
  IC50: 143 ± 2.78 nM

## COc1ccccc1S(=O)(=O)N1CCC(c2ccccc2)CC1 [Compound C3, 1-((2-Methoxyphenyl)sulfonyl)-4-phenylpiperidine]
[1]
  IC50: 85.2 ± 1.66 nM
other
  melting point: 173 to 175 °C

## COc1ccc(NC(=O)CN2CCC(Cc3ccccc3)CC2)cc1 [Compound C15, 2-(4-Benzylpiperidin-1-yl)-N-(4-methoxyphenyl)acetamide]
[1]
  IC50: 184 ± 3.6 nM
other
  melting point: 61 to 63 °C

## O=C(CN1CCC(Cc2ccccc2)CC1)NCc1ccc(F)cc1 [Compound C16, 2-(4-Benzylpiperidin-1-yl)-N-(4-fluorobenzyl)acetamide]
[1]
  IC50: 484 ± 9.44 nM
other
  melting point: 72 to 74 °C

## COc1ccc(CNC(=O)CN2CCC(Cc3ccccc3)CC2)cc1 [Compound C33, 2-(4-Benzylpiperidin-1-yl)-N-(4-methoxybenzyl)acetamide]
[1]
  IC50: 99.8 ± 1.94 nM
other
  melting point: 89 to 91 °C

## Cc1cc(C)c(S(=O)(=O)N2CCC(c3ccccc3)CC2)c(C)c1 [Compound C6, 1-(Mesitylsulfonyl)-4-phenylpiperidine]
[1]
  IC50: 296 ± 5.77 nM
other
  melting point: 157 to 159 °C

## O=C(CN1CCC(Cc2ccccc2)CC1)Nc1ccc(F)cc1 [Compound C32]
[1]
  IC50: 203 ± 3.95 nM

## CC(C)c1cc(C(C)C)c(S(=O)(=O)N2CCC(c3ccccc3)CC2)c(C(C)C)c1 [Compound C7, 1-((2,4,6-tri-isiopropylphenyl)sulfonyl)-4-phenylpiperidine]
[1]
  IC50: 520 ± 10.1 nM

## O=C(CN1CCC(Cc2ccccc2)CC1)NCc1ccccc1 [Compound C31]
[1]
  IC50: 74.9 ± 1.46 nM

## O=S(=O)(c1ccccc1)N1CCC(c2ccccc2)CC1 [Compound C8]
[1]
  IC50: 54.2 ± 1.06 nM

## CCCc1nn(C)c2c(=O)[nH]c(-c3cc(S(=O)(=O)N4CCN(C)CC4)ccc3OCC)nc12 [sildenafil, reference compound]
[2]
  ejaculation latency (EL): 426.6 s
  intromission frequency (IF): 17.8
  intromission latency (IL): 135.1 s
  mount frequency (MF): 26.6
  mount latency (ML): 68.5 s
  post-ejaculatory interval (PEI): 294.5 s
  mean intromission interval (MII): 24.3
[3]
  ED50: 8.52 µmol/kg

## O=S(=O)(c1ccc(Cl)cc1)N1CCC(Cc2ccccc2)CC1 [Compound C29]
[1]
  IC50: 250 ± 4.88 nM

## O=S(=O)(c1ccccc1)N1CCC(Cc2ccccc2)CC1 [Compound C18]
[1]
  IC50: 112 ± 2.19 nM

## Cc1ccc(S(=O)(=O)N2CCC(c3ccccc3)CC2)cc1 [Compound C10]
[1]
  IC50: 133 ± 2.59 nM

## CC(C(=O)Nc1ccc(F)cc1)N1CCC(Cc2ccccc2)CC1 (centres unmarked) [Compound C17]
[1]
  IC50: 279 ± 5.43 nM

## COc1ccc(S(=O)(=O)N2CCC(Cc3ccccc3)CC2)cc1OC [Compound C20]
[1]
  IC50: 63.3 nM
[2]
  ML, IL, IF, MF and EL compared to untreated controls: not significantly different
  ejaculation latency (EL): prolonged
  intromission frequency (IF): 7.6
  intromission latency (IL): 229.1 s
  mount frequency (MF): 16.0
  mount latency (ML): 95.5 s
  post-ejaculatory interval (PEI): 401.8 s
  mean intromission interval (MII): did not alter
[2]; CE=(IF/MF)x100
  copulatory efficiency (CE): did not alter
[2]; CE=(IF/MF)x100, listed as C 20
  copulatory efficiency (CE): 48.5%
[2]; listed as C 20
  mean intromission interval (MII): 44.7
  ejaculation latency (EL): 325.1 s

## Cc1ccc(S(=O)(=O)N2CCC(Cc3ccccc3)CC2)cc1 [Compound C28]
[1]
  IC50: 56.5 nM
[2]
  efficacy in improving copulatory behavior: more pronounced
  ejaculation latency (EL): 332.8 s
  intromission frequency (IF): 9.1
  intromission latency (IL): 195.5 s
  mount frequency (MF): 17.5
  mount latency (ML): 94.6 s
  post-ejaculatory interval (PEI): 393.3 s
  mean intromission interval (MII): 36.6
[2]; CE=(IF/MF)x100
  copulatory efficiency (CE): 52.3%

## O=C(CN1CCC(Cc2ccccc2)CC1)Nc1ccccc1 [Compound C30]
[1]
  IC50: 59 nM
[2]
  ML, IL, IF, MF and EL compared to untreated controls: not significantly different
  ejaculation latency (EL): 324.6 s
  intromission frequency (IF): 6.8
  intromission latency (IL): Weak but significant reductions
  mount frequency (MF): 14.8
  mount latency (ML): 95.5 s
  post-ejaculatory interval (PEI): 411.8 s
  mean intromission interval (MII): did not alter
[2]; CE=(IF/MF)x100
  copulatory efficiency (CE): did not alter
[2]; CE=(IF/MF)x100, listed as C 30
  copulatory efficiency (CE): 46.8%
[2]; listed as C 30
  mean intromission interval (MII): 49.2
  intromission latency (IL): 215.3 s

## COc1ccc(S(=O)(=O)N2CCC(Cc3ccccc3)CC2)c(OC)c1 [Compound C24, 1-((2,4-Dimethoxyphenyl)sulfonyl)-4-Benzylpiperidine]
[1]
  IC50: 56.3 nM and 56.4 nM
[2]
  efficacy in improving copulatory behavior: more pronounced
  ejaculation latency (EL): 377.6 s
  intromission frequency (IF): 9.3
  intromission latency (IL): 193.8 s
  mount frequency (MF): 17.3
  mount latency (ML): 85.0 s
  post-ejaculatory interval (PEI): 370.0 s
  mean intromission interval (MII): 41.2
[2]; CE=(IF/MF)x100
  copulatory efficiency (CE): 54.0%

## O=S(=O)(c1ccc(Cl)cc1)N1CCC(c2ccccc2)CC1 [Compound C5]
[1]
  IC50: 675 ± 13.2 nM

## CC(C(=O)Nc1ccc(S(N)(=O)=O)cc1)N1CCC(Cc2ccccc2)CC1 (centres unmarked) [Compound C12, 2-(4-Benzylpiperidin-1-yl)-N-(4-sulfamoylphenyl)-2-methylacetamide]
[1]
  IC50: 874 ± 17.1 nM

## NS(=O)(=O)c1ccc(NC(=O)CN2CCC(Cc3ccccc3)CC2)cc1 [Compound C13, 2-(4-Benzylpiperidin-1-yl)-N-(4-sulfamoylphenyl)acetamide]
[1]
  IC50: 221 ± 4.32 nM

## COc1cc(CNC(=O)CN2CCC(Cc3ccccc3)CC2)cc(OC)c1OC [Compound C34, 2-(4-Benzylpiperidin-1-yl)-N-(3,4,5-trimethoxybenzyl)acetamide]
[1]
  IC50: 60.5 ± 1.18 nM

— patent US12139461B1, “Piperidine compounds as PDE5 inhibitors” (KING SAUD UNIVERSITY, priority 2024, dated 2024)
